These results are taken from US20240009212A1, “PHOSPHAPLATIN COMPOUNDS AS THERAPEUTIC AGENTS SELECTIVELY TARGETING HIGHLY GLYCOLYTIC TUMOR CELLS AND METHODS THEREOF” (Promontory Therapeutics Inc., priority 2020, published 2024).

Peptide text beside a SMILES is read from it. * marks the point of attachment. Cbz = O=C(OCc1ccccc1)*; CH2F = FC*

What all share (format): cell-based, mouse
Test [1] deals with L929dt and L929^dt cells. In words: Mitochondrial ROS production (MitoSOX), sensitive cells. On the procedure:
Total ROS production and mitochondrial membrane potential were simultaneously measured using a FACScalibur flow cytometer. Pretreated cells with PT-112 were incubated with DiOC6 at 20 nM (Molecular Probes, Madrid) and DHE at 2 μM (Molecular Probes, Madrid) for 30 min at 37° C. For specific mitochondrial ROS production, cells were incubated with MitoSOX™ (5 μM, ThermoFisher, Rockford, USA) for 30 minutes at 37° C.
In order to obtain more evidence about the mechanism of action of PT-112, its effect on ROS production was analyzed. First, a time-course determination of total ROS generation by detection of 2HE oxidation was performed by flow cytometry. […] To complete this study, specific mitochondrial ROS production upon PT-112 treatment using the MitoSOX™ reagent was determined.
However, this effect can be due to direct reactivity of the thiol group with Pt, inactivating the cytotoxic potential of PT-112, and not to the elimination of ROS generation. This hypothesis was confirmed by incubating PT-112 with GSH during 1 h in the absence of cells and adding this GSH-treated PT-112 to cells, showing no cytotoxicity (FIG. 6). […] Since PT-112-induced ROS generation seems to be concentrated in mitochondria, the mitochondria-specific ROS scavenger MitoTEMPO was used. Cells (3×10^4) were seeded in a 96-well plate in phenol red-free medium and were incubated with 100 μM of MitoTEMPO for 2 h. Then, 10 μM of PT-112 was added and incubated for 48 and 72 h at 37° C.

The subject of test [2] is L929dt and L929^dt cells. In words: ROS scavengers on PT-112-induced cell death. Conditions: for effect on PT-112-induced cell death: ROS scavenger plus 10 μM PT-112 (GSH 5 mM, 72 h).
In test [3] the test system is glycolytic cells sensitive to PT-112-induced cell death. Put plainly: Apoptosis and necroptosis inhibition of PT-112-induced cell death. Conditions: 1 h pretreatment (Z-VAD-fmk 50 μM, necrostatin-1 30 μM), then 10 μM PT-112 for 48 h. On the procedure: Cells (3×10^4) were seeded in a 96-well plate and incubated with a pan-caspase-inhibitor Z-VAD-fmk (50 μM, MedChem Express, New Jersey, USA) and/or RIPK-1 inhibitor necrostatin-1 (30 μM, MedChem Express, New Jersey, USA) for 1 h. After that, cells were treated with 10 μM of PT-112 and incubated for 48 h at 37° C. Both inhibitors were refreshed in their corresponding well after 24 h. Finally, cell death was assessed using flow cytometry after incubation with annexin-V-FITC and 7-AAD for 10 minutes. […] For this purpose, a FITC-labelled anti-caspase-3 antibody that detects cleaved, active caspase-3 by flow cytometry was used. Cells (3×10^4) were treated with 10 μM of PT-112 for 24-72 h. Then, cells were incubated with anti-cleaved caspase-3 labelled with FITC dye and analyzed by flow cytometry. […] The implications of caspase-3 activation in this process were investigated by tested the ability of the general pan-caspase inhibitor Z-VAD-fmk and/or the necroptosis inhibitor necrostatin-1 to prevent cell death induced by PT-112 (FIG. 4B). Cells were pretreated for 1 h with or without pan-caspase or/and necroptosis inhibitors and then, incubated with 10 μM of PT-112 for 48 h. Flow cytometry analysis was carried-out using annexin-V-FITC and 7-AAD staining. Cells were stained simultaneously with annexin-V-FITC and 7-AAD and the percentage of the different populations analyzed by flow cytometry. […]

Test [4] relates to L929dt and L929^dt cybrid cells. Put plainly: MTT relative cell growth, glycolytic cells. The following applies: 72 h, highest dose (10 μM). Here is the method:
(§1) Cell Culture and Generation of Cybrids Mouse fibroblast cell lines L929 and L929-derived (L929dt) were routinely cultured in high glucose DMEM medium with GlutaMAX (Life Technologies, Paisley, UK) supplemented with 10% of fetal calf serum (FCS), penicillin (1000 U/ml) and streptomycin (10 mg/ml) (PanBiotech, Aidenbach, Germany) at 37° C. and 5% CO2 using standard procedures. The transmitochondrial cell lines L929^dt and dt^L929 were obtained as previously described (Schmidt, W., et al. (1993) 53:799-805) and cultured with the identical medium used with the parental cells. For L929-ρ^0 cells, complete DMEM medium was also supplemented with 100 pyruvate (100 μg/ml) and uridine (50 μg/ml).
(§2) Relative cell growth was measured using the Mossman's method. 3×10^4 cells were seeded per well in a 96-well flat-bottomed plate and incubated with increasing concentrations of PT-112 or cisplatin (2, 6, and 10 μM) for 24-72 h at 37° C. […] During the incubation time, viable cells reduce MTT solution in insoluble purple formazan crystals, solubilized afterwards with isopropanol and 0.05 M HCl mixture and the absorbance was measured in a microplate reader (Dynatec, Pina de Ebro, Spain).
(§3) The sensitivity of L929, L929dt and cybrid cells to PT-112 was compared. […] The ability of both drugs to inhibit cell growth was assessed by the MTT reduction method. […]

In a further test the test system is L929 and dt^L929 cells. In words: MTT relative cell growth, OXPHOS-competent cells. The following applies: 72 h, higher doses. Here is the method: as §1, §2, §3
The next test deals with L929-ρ^0 cells. In words: MTT relative cell growth, rho0 cells. The following applies: 2, 6 and 10 μM, 24-72 h. Here is the method: as §1
Relative cell growth was measured using the Mossman's method. 3×10^4 cells were seeded per well in a 96-well flat-bottomed plate and incubated with increasing concentrations of PT-112 or cisplatin (2, 6, and 10 μM) for 24-72 h at 37° C. Then, 10 μl of a 5 mg/ml MTT dye solution was added per well and incubated for 3 hours. During the incubation time, viable cells reduce MTT solution in insoluble purple formazan crystals, solubilized afterwards with isopropanol and 0.05 M HCl mixture and the absorbance was measured in a microplate reader (Dynatec, Pina de Ebro, Spain). […]

The subject of test [5] is L929, L929dt and cybrids cells. In words: Cytotoxicity, annexin-V-FITC/7-AAD flow cytometry. Conditions: 10 μM, 24, 48 or 72 h. Here is the method: Cytotoxicity assays were carried-out as follows: 100 μl aliquots of 3×10^4 cells were seeded per well in 96-well plate and 10 μM of PT-112 or cisplatin was added and incubated for 24-72 h at 37° C. Cell death was analyzed using a FACScalibur flow cytometer (BD Biosciences) after incubation with Annexin-V-FITC and/or 7-AAD (BD Biosciences, Madrid) in annexin binding buffer (140 mM NaCl, 2.5 mM CaCl2), 10 mM HEPES/NaOH, pH 7.4) for 10 minutes.
To test cell death induction by PT-112 and cisplatin, the parental cells L929, L929dt and cybrids cells were incubated with 10 μM of PT-112 or cisplatin for 24, 48 or 72 h and, at the end of the incubations, simultaneously stained with annexin-V-FITC and 7-AAD and analyzed by flow cytometry. […] The results are shown as mean±SD of at least 2 independent experiments made in duplicate. […] On the contrary, in cells treated with PT-112, this population is not observed at any time point in sensitive L929dt and L929^dt cells, and a population double positive for both markers is at short times of exposure, increasing with time (FIG. 2B, bar sections colored in white). Finally, at longer times, a population positive for 7-AAD and negative for annexin-V staining appears for both cell lines, typical of necrotic cell death (FIG. 2B, sections colored in grey).

In the case of `CC1(C)CC(NC(=O)C[P+](c2ccccc2)(c2ccccc2)c2ccccc2)CC(C)(C)N1[O]` [MitoTEMPO], the “inhibition of mitochondrial superoxide generation induced by PT-112” value with L929dt and L929^dt cells [1] (100 μM MitoTEMPO 2 h, then 10 μM PT-112, L929dt cells) is given as “only partially”. Also, the “inhibition of mitochondrial superoxide generation induced by antimycin A” value with L929dt and L929^dt cells [1] (100 μM MitoTEMPO, L929dt cells) is reported as “almost completely abolish”. Moreover, in the test on L929dt and L929^dt cells [2] (100 μM MitoTEMPO, 10 μM PT-112, statistically significant after 72 h), the “protection from PT-112-induced L929dt cell death” value is “partial protection”.
Turning to `O=C(O)c1ccc(/C2=C3\C=CC(=N3)/C(c3ccc(C(=O)O)cc3)=c3/cc/c4[n]3[Mn]([Cl])[n]3c2ccc3/C(c2ccc(C(=O)O)cc2)=C2/C=CC(=N2)\C=4c2ccc(C(=O)O)cc2)cc1` [MnTBAP], the “effect on PT-112-induced cell death” value with L929dt and L929^dt cells [2] is “neither of them were able to prevent”.
Regarding `CC1(C)CCCC(C)(C)N1[O]` [TEMPO], the “effect on PT-112-induced cell death” value with L929dt and L929^dt cells [2] was “neither of them were able to prevent”.
In the case of `COC(=O)C[C@H](NC(=O)[C@H](C)NC(=O)[C@@H](NC(=O)OCc1ccccc1)C(C)C)C(=O)CF` [Z-VAD-fmk] (Cbz-Val-Ala-Asp(OMe)-CH2F), the “prevention of cell death induced by PT-112” value in test [3] is on record as “did not inhibit cell death”.
Take `N.N.[Cl][Pt][Cl]` [cisplatin]: the growth inhibition in test [4] stood at 95%; in the test on L929 and dt^L929 cells, 70%. In addition, in the test on L929-ρ^0 cells, the cell growth entry is “inhibited the growth”. Also, the cell death induction entry in test [5] is reported as “induces cell death in all cell lines”.
On to `N[C@@H](CCC(=O)N[C@@H](CS)C(=O)NCC(=O)O)C(=O)O` [glutathione], for which the “effect on PT-112-induced cell death” value in the test with L929dt and L929^dt cells [2] is “completely abolished”.
Regarding `CN1C(=O)C(Cc2c[nH]c3ccccc23)NC1=S` (centres unmarked) [necrostatin-1], the “prevention of cell death induced by PT-112” value in test [3] was “did not inhibit cell death”.
As for `Cc1c(C)c2c(c(C)c1O)CC[C@@](C)(CCC[C@H](C)CCC[C@H](C)CCCC(C)C)O2` [α-tocopherol], in the test with L929dt and L929^dt cells [2], the “effect on PT-112-induced cell death” value is “neither of them were able to prevent”.
As for antimycin A, the “mitochondrial superoxide anion, MFI” value in the test on L929dt and L929^dt cells [1] (L929dt cells, MitoSOX, FIG. 7) was found to be 128.
